Values quoted from earlier work, collected in paper PMC2785468, “Androgen Receptor Mutations Associated with Androgen Insensitivity Syndrome: A High Content Analysis Approach Leading to Personalized Medicine” (PLoS ONE, 2009).

Key:
R840C mutated receptor = details: transfected CV1 cells; cited from earlier work
P766S = tested on: P766S; design: method as in PMID 7929841; details: cited from earlier work
F764L mutation = tested on: F764L mutation; design: method as in PMID 7929841; details: MMTV-luc reporter, transfected CV1 cells; cited from earlier work
mutant F764L = details: transfected CHO cells; cited from earlier work

Question: With C[C@]12CCC(=O)C[C@@H]1CC[C@@H]1[C@@H]2CC[C@]2(C)[C@@H](O)CC[C@@H]12 [DHT, dihydrotestosterone] as the compound, how does the “transcriptional activity, % of control” value (R840C mutated receptor) read?
Answer: Its value is 67%.

Question: What about the “transcriptional activity, % of control” value (P766S) of the same compound?
Answer: The value was 9%.

Question: And the “transcriptional activity (in words)” value (F764L mutation)?
Answer: The value was “significantly decreased transcriptional activity”.

Question: What about the Kd (mutant F764L) of the same compound?
Answer: The Kd was 0.1 nM.
